Experimental data published in ChEMBL document CHEMBL3414489, “3,4-Diaza-bicyclo[4.1.0]hept-4-en-2-one phenoxypropylamine analogs of irdabisant (CEP-26401) as potent histamine-3 receptor inverse agonists with robust wake-promoting activity” (Eur J Med Chem, 2015).
The source made the active and inactive calls. The rule behind the calls is not given here.

What was measured:
Histamine H3 receptor [1] = target: T1, Histamine H3 receptor (Homo sapiens, UniProt Q9Y5N1); test: Binding affinity to human histamine H3 receptor
Histamine H3 receptor [2] = target: Histamine H3 receptor (Rattus norvegicus, UniProt Q9QYN8); test: Binding affinity to rat histamine H3 receptor
[3] = Half life in mouse liver microsomes; format: ADME
[4] = Half life in rat liver microsomes; format: ADME
[5] = Half life in monkey liver microsomes; format: ADME, Macaca mulatta; details: rhesus monkey
[6] = Half life in human liver microsomes; format: ADME
Cytochrome P450 1A2 = target: T2, Cytochrome P450 1A2 (Homo sapiens, UniProt P05177); test: Inhibition of CYP1A2 (unknown origin); format: ADME
T2 sequence (P05177 whole entry): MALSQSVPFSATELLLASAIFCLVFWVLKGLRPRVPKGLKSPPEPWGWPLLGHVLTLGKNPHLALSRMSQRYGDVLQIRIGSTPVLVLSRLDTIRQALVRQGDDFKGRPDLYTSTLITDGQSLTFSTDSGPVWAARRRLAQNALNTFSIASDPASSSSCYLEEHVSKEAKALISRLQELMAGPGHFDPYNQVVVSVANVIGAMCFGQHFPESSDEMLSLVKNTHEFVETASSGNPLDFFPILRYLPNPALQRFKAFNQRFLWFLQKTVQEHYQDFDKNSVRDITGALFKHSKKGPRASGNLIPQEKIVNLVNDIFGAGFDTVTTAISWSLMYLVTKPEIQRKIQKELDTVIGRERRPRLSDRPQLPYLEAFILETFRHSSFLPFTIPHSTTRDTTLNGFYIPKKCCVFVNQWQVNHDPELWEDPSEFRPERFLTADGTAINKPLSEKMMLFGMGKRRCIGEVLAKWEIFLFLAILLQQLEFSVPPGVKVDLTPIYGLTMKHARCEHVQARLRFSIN

Histamine H1 receptor = Histamine H1 receptor (Homo sapiens, UniProt P35367); test: Inhibition of human H1R
Histamine H2 receptor = Histamine H2 receptor (Homo sapiens, UniProt P25021); test: Inhibition of human H2R
Histamine H4 receptor = Histamine H4 receptor (Homo sapiens, UniProt Q9H3N8); test: Inhibition of human H4R
[7] = target: Sodium-dependent dopamine transporter (Homo sapiens, UniProt Q01959); test: Inhibition of DAT (unknown origin)
[8] = target: T3, Alpha-2C adrenergic receptor (Homo sapiens, UniProt P18825); test: Inhibition of alpha-2C adrenergic receptor (unknown origin)
T3 sequence (P18825 whole entry): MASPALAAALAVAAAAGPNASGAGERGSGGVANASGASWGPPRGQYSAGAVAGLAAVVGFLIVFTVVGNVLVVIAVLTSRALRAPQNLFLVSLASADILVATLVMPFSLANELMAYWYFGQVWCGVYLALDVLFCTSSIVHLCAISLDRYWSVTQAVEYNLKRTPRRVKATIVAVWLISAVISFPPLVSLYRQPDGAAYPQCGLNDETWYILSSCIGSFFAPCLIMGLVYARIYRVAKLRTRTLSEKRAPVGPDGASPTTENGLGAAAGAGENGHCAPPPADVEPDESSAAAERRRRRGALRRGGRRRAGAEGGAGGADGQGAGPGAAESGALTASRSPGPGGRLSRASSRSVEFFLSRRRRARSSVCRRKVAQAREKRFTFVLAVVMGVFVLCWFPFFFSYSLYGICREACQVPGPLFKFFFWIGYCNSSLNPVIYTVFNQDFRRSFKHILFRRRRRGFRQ

[9] = Aqueous solubility of the compound at pH 7.4; format: physicochemical
[10] = Aqueous solubility of the compound at pH 2; format: physicochemical
[11] = Permeability across human Caco2 cells; format: ADME, cell-based; details: Caco-2
[12] = Plasma protein binding in rat; format: ADME, cell-free; details: read-out: PPB (converted)
[13] = Plasma protein binding in dog; format: ADME, cell-free, Canis lupus familiaris; details: read-out: PPB (converted)
[14] = Plasma protein binding in human; format: ADME, cell-free; details: read-out: PPB (converted)
[15] = Half life in rat at 1 mg/kg, iv; format: ADME, organism-based; design: dose 1 mg/kg, route intravenous; details: in vivo
[16] = Volume of distribution at steady state in rat at 1 mg/kg, iv; format: ADME, organism-based; design: dose 1 mg/kg, route intravenous; details: in vivo, read-out: Vdss
[17] = Clearance in rat at 1 mg/kg, iv; format: ADME, organism-based; design: dose 1 mg/kg, route intravenous; details: in vivo
[18] = AUC (0 to t) in rat at 10 mg/kg, po; format: ADME, organism-based; design: dose 10 mg/kg, route oral; details: plasma
[19] = Cmax in rat at 10 mg/kg, po; format: ADME, organism-based; design: dose 10 mg/kg, route oral; details: in vivo
[20] = Oral bioavailability in rat at 10 mg/kg; format: ADME, organism-based; details: in vivo
[21] = Ratio of drug level in brain to plasma in rat at 10 mg/kg, ip after 2 hrs; format: ADME, organism-based; design: dose 10 mg/kg, route intraperitoneal; details: read-out: BPR
[22] = Half life in dog at 1 mg/kg, iv; format: ADME, organism-based, Canis lupus familiaris; design: dose 1 mg/kg, route intravenous; details: in vivo
[23] = Volume of distribution at steady state in dog at 1 mg/kg, iv; format: ADME, organism-based, Canis lupus familiaris; design: dose 1 mg/kg, route intravenous; details: in vivo, read-out: Vdss
Canis familiaris [24] = test: AUC (0 to t) in dog at 3 mg/kg, po; format: ADME, organism-based, Canis lupus familiaris, Plasma; design: dose 3 mg/kg, route oral; details: in vivo
[25] = Cmax in dog at 3 mg/kg, po; format: ADME, organism-based, Canis lupus familiaris; design: dose 3 mg/kg, route oral; details: in vivo
Canis familiaris [26] = test: Oral bioavailability in dog at 3 mg/kg; format: ADME, organism-based, Canis lupus familiaris; details: in vivo
[27] = Ratio of drug level in brain to plasma in dog at 10 mg/kg, ip after 2 hrs; format: ADME, organism-based, Canis lupus familiaris; design: dose 10 mg/kg, route intraperitoneal; details: read-out: BPR
[28] = Half life in monkey at 1 mg/kg, iv; format: ADME, organism-based, Macaca mulatta; design: dose 1 mg/kg, route intravenous; details: rhesus monkey, in vivo
[29] = Volume of distribution at steady state in monkey at 1 mg/kg, iv; format: ADME, organism-based, Macaca mulatta; design: dose 1 mg/kg, route intravenous; details: rhesus monkey, in vivo, read-out: Vdss
[30] = Clearance in monkey at 1 mg/kg, iv; format: ADME, organism-based, Macaca mulatta; design: dose 1 mg/kg, route intravenous; details: rhesus monkey, in vivo
[31] = AUC (0 to t) in monkey at 3 mg/kg, po; format: ADME, organism-based, Macaca mulatta; design: dose 3 mg/kg, route oral; details: rhesus monkey, plasma
[32] = Cmax in monkey at 3 mg/kg, po; format: ADME, organism-based, Macaca mulatta; design: dose 3 mg/kg, route oral; details: rhesus monkey, in vivo
[33] = Oral bioavailability in monkey at 3 mg/kg; format: ADME, organism-based, Macaca mulatta; details: rhesus monkey, in vivo
Rattus norvegicus [34] = organism: Rattus norvegicus; test: Inhibition of RAMH-induced dipsogenia in rat; format: functional
Rattus norvegicus [35] = test: Wake promoting activity in ip dosed rat EEG/EMG model; format: functional, organism-based
Rattus norvegicus [36] = test: Wake promoting activity in rat EEG/EMG model assessed as AUC of cumulative wake at 3 mg/kg, ip up to 4 hrs relative to vehicle-treated control; format: functional, organism-based; design: dose 3 mg/kg, time < 4 hr
Rattus norvegicus [37] = test: Wake promoting activity in rat EEG/EMG model assessed as AUC of cumulative wake at 30 mg/kg, ip up to 5.5 hrs relative to vehicle-treated control; format: functional, organism-based; design: dose 30 mg/kg, time < 5.5 hr
Rattus norvegicus [38] = test: Wake promoting activity in rat EEG/EMG model assessed as total time awake at 30 mg/kg, ip at 6.5 hrs relative to vehicle-treated control; format: functional; details: route intraperitoneal
Rattus norvegicus [39] = test: Wake promoting activity in rat EEG/EMG model assessed as recovery from sleep at 3 to 30 mg/kg, ip after 22 hrs relative to vehicle-treated control; format: functional, organism-based
Rattus norvegicus [40] = test: Toxicity in rat at 3 to 30 mg/kg, ip; format: organism-based; design: dose 3-30 mg/kg, route intraperitoneal; details: in vivo
Rattus norvegicus [41] = test: Toxicity in po dosed rat; format: organism-based; details: in vivo
Histamine H3 receptor [42] = target: T1, Histamine H3 receptor; test: Inverse agonist activity at human H3R expressed in CHO cells assessed as inhibition of RAMH-induced [35S]GTPgammaS binding relative to control; format: functional, cell-based
Rattus norvegicus [43] = organism: Rattus norvegicus; details: 10 mg/kg

Chain of Histamine H3 receptor (Rattus norvegicus, UniProt Q9QYN8) (Q9QYN8 whole entry): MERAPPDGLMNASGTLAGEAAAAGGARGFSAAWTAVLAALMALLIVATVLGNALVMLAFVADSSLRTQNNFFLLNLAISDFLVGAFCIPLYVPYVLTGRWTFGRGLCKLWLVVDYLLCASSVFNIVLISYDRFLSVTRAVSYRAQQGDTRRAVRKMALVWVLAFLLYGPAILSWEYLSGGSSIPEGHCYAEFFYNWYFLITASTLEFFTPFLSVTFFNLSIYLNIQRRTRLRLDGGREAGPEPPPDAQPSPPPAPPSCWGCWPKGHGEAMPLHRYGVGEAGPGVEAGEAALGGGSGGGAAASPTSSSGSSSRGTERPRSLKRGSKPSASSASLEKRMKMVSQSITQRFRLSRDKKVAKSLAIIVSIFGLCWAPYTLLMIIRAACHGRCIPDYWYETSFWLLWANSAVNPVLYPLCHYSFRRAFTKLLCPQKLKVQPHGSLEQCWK
T1 sequence (Q9Y5N1 whole entry): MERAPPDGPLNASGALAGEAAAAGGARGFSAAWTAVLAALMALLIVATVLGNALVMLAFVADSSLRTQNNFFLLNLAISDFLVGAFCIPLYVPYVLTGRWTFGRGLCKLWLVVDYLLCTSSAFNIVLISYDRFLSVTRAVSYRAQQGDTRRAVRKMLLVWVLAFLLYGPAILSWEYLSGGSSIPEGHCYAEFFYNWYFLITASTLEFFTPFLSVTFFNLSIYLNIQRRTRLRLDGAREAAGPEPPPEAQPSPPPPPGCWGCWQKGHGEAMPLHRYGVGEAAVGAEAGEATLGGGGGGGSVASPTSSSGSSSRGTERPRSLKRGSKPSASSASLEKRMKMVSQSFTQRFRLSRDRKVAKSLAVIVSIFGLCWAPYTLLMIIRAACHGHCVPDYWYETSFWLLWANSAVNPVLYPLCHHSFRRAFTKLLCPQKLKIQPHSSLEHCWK
Chain of Sodium-dependent dopamine transporter (Q01959 whole entry): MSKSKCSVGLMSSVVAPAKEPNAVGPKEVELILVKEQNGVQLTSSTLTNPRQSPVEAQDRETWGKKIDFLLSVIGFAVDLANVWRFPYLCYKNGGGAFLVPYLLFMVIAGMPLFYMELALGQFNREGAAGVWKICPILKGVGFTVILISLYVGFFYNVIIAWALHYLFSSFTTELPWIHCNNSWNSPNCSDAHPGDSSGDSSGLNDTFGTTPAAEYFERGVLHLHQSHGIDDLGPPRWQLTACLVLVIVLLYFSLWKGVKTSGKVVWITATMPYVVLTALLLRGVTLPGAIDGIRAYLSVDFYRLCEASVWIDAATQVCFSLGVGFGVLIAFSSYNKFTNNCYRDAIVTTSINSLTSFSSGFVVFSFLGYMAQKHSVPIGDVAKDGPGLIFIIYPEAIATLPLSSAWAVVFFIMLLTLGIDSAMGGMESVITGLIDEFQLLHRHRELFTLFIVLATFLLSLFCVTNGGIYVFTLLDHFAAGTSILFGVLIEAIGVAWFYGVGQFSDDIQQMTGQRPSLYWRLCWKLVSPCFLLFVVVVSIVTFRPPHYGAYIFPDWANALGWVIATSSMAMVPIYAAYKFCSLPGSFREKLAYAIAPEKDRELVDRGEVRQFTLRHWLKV
Chain of Histamine H2 receptor (P25021 whole entry): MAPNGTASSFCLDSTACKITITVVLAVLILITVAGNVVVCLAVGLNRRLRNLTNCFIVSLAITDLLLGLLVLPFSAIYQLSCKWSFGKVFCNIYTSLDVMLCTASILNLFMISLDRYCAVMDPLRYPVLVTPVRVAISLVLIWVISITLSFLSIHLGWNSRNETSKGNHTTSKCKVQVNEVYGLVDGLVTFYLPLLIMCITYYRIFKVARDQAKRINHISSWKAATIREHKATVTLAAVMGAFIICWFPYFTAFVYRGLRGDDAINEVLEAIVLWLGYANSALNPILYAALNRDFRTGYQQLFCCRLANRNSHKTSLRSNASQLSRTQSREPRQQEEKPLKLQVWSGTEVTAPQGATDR
Chain of Histamine H1 receptor (P35367 whole entry): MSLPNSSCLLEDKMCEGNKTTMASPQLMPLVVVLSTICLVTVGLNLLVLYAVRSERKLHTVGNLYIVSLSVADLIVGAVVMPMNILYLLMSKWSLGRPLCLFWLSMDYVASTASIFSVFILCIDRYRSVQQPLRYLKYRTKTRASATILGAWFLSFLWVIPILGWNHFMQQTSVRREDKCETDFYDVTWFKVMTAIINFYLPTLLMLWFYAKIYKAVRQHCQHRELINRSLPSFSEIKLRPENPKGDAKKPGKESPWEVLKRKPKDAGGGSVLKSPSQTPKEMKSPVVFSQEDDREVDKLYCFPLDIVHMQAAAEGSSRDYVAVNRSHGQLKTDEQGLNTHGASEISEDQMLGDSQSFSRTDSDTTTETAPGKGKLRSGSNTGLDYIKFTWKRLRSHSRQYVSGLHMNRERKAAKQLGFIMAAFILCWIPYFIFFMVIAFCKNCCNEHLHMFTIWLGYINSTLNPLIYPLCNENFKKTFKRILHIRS
Chain of Histamine H4 receptor (Q9H3N8 whole entry): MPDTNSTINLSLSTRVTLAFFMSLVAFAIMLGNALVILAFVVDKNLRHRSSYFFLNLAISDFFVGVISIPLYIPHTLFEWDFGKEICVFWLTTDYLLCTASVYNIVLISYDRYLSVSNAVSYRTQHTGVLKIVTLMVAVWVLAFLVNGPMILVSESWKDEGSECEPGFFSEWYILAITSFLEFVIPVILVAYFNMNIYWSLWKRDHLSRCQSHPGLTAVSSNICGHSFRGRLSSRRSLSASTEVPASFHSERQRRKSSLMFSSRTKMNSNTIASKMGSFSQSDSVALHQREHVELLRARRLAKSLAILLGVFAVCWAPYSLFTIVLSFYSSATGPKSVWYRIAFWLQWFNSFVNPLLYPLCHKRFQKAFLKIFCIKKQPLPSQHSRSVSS

Compound: Cc1cc(OCCCN2CCC[C@@H]2C)ccc1C1=NNC(=O)C2CC12 (mixture of isomers)
- Ki (Histamine H3 receptor [1]): 49 nM
- Ki (Histamine H3 receptor [2]): 103 nM

Compound: O=C1NN=C(c2ccc(OCCCN3CCCCC3)cc2)C2CC12 (racemic)
- Ki (Histamine H3 receptor [1]): 19 nM
- Ki (Histamine H3 receptor [2]): 54 nM

Compound: Cc1cc(OCCCN2CCCCC2)ccc1C1=NNC(=O)C2CC12 (racemic)
- Ki (Histamine H3 receptor [1]): 39 nM
- Ki (Histamine H3 receptor [2]): 139 nM

Compound: C[C@@H]1CCCN1CCCOc1ccc(C2=NNC(=O)[C@@H]3C[C@H]23)cc1
- Ki (Histamine H3 receptor [1]): 3.1 nM
- Ki (Histamine H3 receptor [2]): 9.9 nM
- half-life [3]: > 0.667 h
- half-life [4]: > 0.667 h
- half-life [5]: > 0.667 h
- half-life [6]: > 0.667 h
- IC50 (Cytochrome P450 1A2): > 30000 nM
- Ki (Histamine H1 receptor): > 10000 nM
- Ki (Histamine H2 receptor): > 10000 nM
- Ki (Histamine H4 receptor): > 10000 nM
- Ki [7]: 10200 nM
- Ki [8]: 1500 nM
- solubility [9]: > 4000 µg/mL
- solubility [10]: > 4000 µg/mL
- Papp [11]: 17.5 ×10⁻⁶ cm/s
- fraction unbound [12]: 0.19
- fraction unbound [13]: 0.4
- fraction unbound [14]: 0.55
- half-life [15]: 1.1 h
- Vd [16]: 0.9 L/kg
- clearance [17]: 9.6 mL/min/kg
- AUC(0-t) [18]: 5760 ng·h/mL
- Cmax [19]: 810 ng/mL
- bioavailability [20]: 34%
- Kp at 2 h [21]: 2
- half-life [22]: 3.2 h
- Vd [23]: 3.7 L/kg
- AUCt (Canis familiaris [24]): 4205 ng·h/mL
- Cmax [25]: 664 ng/mL
- F (Canis familiaris [26]): 115%
- Kp at 2 h [27]: 2.1
- half-life [28]: 7.7 h
- Vd [29]: 4 L/kg
- clearance [30]: 6 mL/min/kg
- AUC(0-t) [31]: 9570 ng·h/mL
- Cmax [32]: 764 ng/mL
- bioavailability [33]: 136%
- Activity (Rattus norvegicus [34]): Dose-dependent effect
- ED50 (Rattus norvegicus [34]): 0.14 mg/kg
- Activity (Rattus norvegicus [35]): Dose-dependent effect
- AUC (Rattus norvegicus [36]): 128 min
- AUC (Rattus norvegicus [37]): 233 min
- Time (Rattus norvegicus [38]): 197 min
- Activity (Rattus norvegicus [39]): inactive
- Activity (Rattus norvegicus [40]): Non-toxic
- Activity (Rattus norvegicus [41]): Non-toxic
- EC50 (Histamine H3 receptor [42]): 0.7 nM
- AUC (Rattus norvegicus [43]): 158 min
